Measurements from patent US20230085307A1, “PYRIDAZINONE COMPOUND AND HERBICIDE” (NISSAN CHEMICAL CORPORATION, priority 2019, published 2023).

Legend:
late watergrass = assay: Test Example 1: herbicidal activity, application before weed generation under submerged conditions (Table 16, symbol A); assay type: in vivo, late watergrass (Echinochloa oryzicola); conditions: 320 g/ha applied herbicide
How it was run: (§1)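 Emulsion formulation, water-diluted to set dose, was put onto the flooded surface (4 cm depth, alluvial soil) the same day weeds were sown and 2.5-leaf rice transplanted. After 3 weeks at 25-30 °C under glass, each species was rated 0 (≤5% kill) to 5 (≥90% kill).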

Japanese bulrush = assay: Test Example 1: herbicidal activity, application before weed generation under submerged conditions (Table 16, symbol B); assay type: in vivo, Japanese bulrush (Schoenoplectus juncoides); conditions: 320 g/ha applied herbicide
How it was run: as §1

oval-leafed pondweed = assay: Test Example 1: herbicidal activity, application before weed generation under submerged conditions (Table 16, symbol C); assay type: in vivo, oval-leafed pondweed (Monochoria vaginalis); conditions: 320 g/ha applied herbicide
How it was run: as §1

barnyard grass [1] = assay: Test Example 3: herbicidal effect by foliage application, Wagner pot (Table 18, symbol H); assay type: in vivo, barnyard grass (Echinochloa crus-galli); conditions: amount of applied herbicide 320 g/ha
How it was run: (§2)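 Plants were sown in alluvial soil held under 0.1–0.5 cm standing water and grown 14 days in a greenhouse at 25–30 °C. An emulsifiable formulation, water-diluted to the set dose, was then sprayed onto the foliage, and effects were scored three weeks later using previously defined criteria.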

Chinese sprangletop = assay: Test Example 3: herbicidal effect by foliage application, Wagner pot (Table 18, symbol D); assay type: in vivo, chinese sprangletop (Leptochloa chinensis); conditions: amount of applied herbicide 320 g/ha
How it was run: as §2

southern crabgrass [2] = assay: Test Example 4: herbicidal effect by soil treatment (Table 19, symbol F); assay type: in vivo, southern crabgrass (Digitaria ciliaris); conditions: amount of applied herbicide 320 g/ha
How it was run: (§3)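 Applied as a water-diluted emulsion, the compound was sprayed onto soil covering newly sown seeds. Evaluation came three weeks after application, in a greenhouse held at 25° C. to 30° C.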

green foxtail [3] = assay: Test Example 4: herbicidal effect by soil treatment (Table 19, symbol G); assay type: in vivo, green foxtail (Setaria viridis); conditions: amount of applied herbicide 320 g/ha
How it was run: as §3

barnyard grass [4] = assay: Test Example 4: herbicidal effect by soil treatment (Table 19, symbol H); assay type: in vivo, barnyard grass (Echinochloa crus-galli); conditions: amount of applied herbicide 320 g/ha
How it was run: as §3

wild oat [5] = assay: Test Example 4: herbicidal effect by soil treatment (Table 19, symbol I); assay type: in vivo, wild oat (Avena fatua); conditions: amount of applied herbicide 320 g/ha
How it was run: as §3

blackgrass [6] = assay: Test Example 4: herbicidal effect by soil treatment (Table 19, symbol J); assay type: in vivo, blackgrass (Alopecurus myosuroides); conditions: amount of applied herbicide 320 g/ha
How it was run: as §3

Italian ryegrass [7] = assay: Test Example 4: herbicidal effect by soil treatment (Table 19, symbol K); assay type: in vivo, Italian ryegrass (Lolium multiflorum); conditions: amount of applied herbicide 320 g/ha
How it was run: as §3

windgrass [8] = assay: Test Example 4: herbicidal effect by soil treatment (Table 19, symbol L); assay type: in vivo, windgrass (Apera spica-venti); conditions: amount of applied herbicide 320 g/ha
How it was run: as §3

velvetleaf [9] = assay: Test Example 4: herbicidal effect by soil treatment (Table 19, symbol M); assay type: in vivo, velvetleaf (Abutilon theophrasti); conditions: amount of applied herbicide 320 g/ha
How it was run: as §3

redroot pigweed [10] = assay: Test Example 4: herbicidal effect by soil treatment (Table 19, symbol N); assay type: in vivo, redroot pigweed (Amaranthus retroflexus); conditions: amount of applied herbicide 320 g/ha
How it was run: as §3

lambsquarters [11] = assay: Test Example 4: herbicidal effect by soil treatment (Table 19, symbol O); assay type: in vivo, lambsquarters (Chenopodium album); conditions: amount of applied herbicide 320 g/ha
How it was run: as §3

chickweed [12] = assay: Test Example 4: herbicidal effect by soil treatment (Table 19, symbol P); assay type: in vivo, common chickweed (Stellaria media); conditions: amount of applied herbicide 320 g/ha
How it was run: as §3

false cleavers = assay: Test Example 4: herbicidal effect by soil treatment (Table 19, symbol Q); assay type: in vivo, false cleavers (Galium spurium); conditions: amount of applied herbicide 320 g/ha
How it was run: as §3

persian speedwell [13] = assay: Test Example 4: herbicidal effect by soil treatment (Table 19, symbol R); assay type: in vivo, Persian speedwell (Veronica persica); conditions: amount of applied herbicide 320 g/ha
How it was run: as §3

southern crabgrass [14] = assay: Test Example 5: herbicidal effect by foliage application, plastic box (Table 20, symbol F); assay type: in vivo, southern crabgrass (Digitaria ciliaris); conditions: foliage application, 320 g/ha, evaluated three weeks after application
How it was run: (§4)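 Sow seeds spot-wise in sterilized diluvial soil; cover with ~1.5 cm soil. Grow 14 days in greenhouse, 25° C. to 30° C. Spray foliage with emulsion diluted to predetermined amount. Rate effect after 3 weeks.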

green foxtail [15] = assay: Test Example 5: herbicidal effect by foliage application, plastic box (Table 20, symbol G); assay type: in vivo, green foxtail (Setaria viridis); conditions: foliage application, 320 g/ha, evaluated three weeks after application
How it was run: as §4

barnyard grass [16] = assay: Test Example 5: herbicidal effect by foliage application, plastic box (Table 20, symbol H); assay type: in vivo, barnyard grass (Echinochloa crus-galli); conditions: foliage application, 320 g/ha, evaluated three weeks after application
How it was run: as §4

wild oat [17] = assay: Test Example 5: herbicidal effect by foliage application, plastic box (Table 20, symbol I); assay type: in vivo, wild oat (Avena fatua); conditions: foliage application, 320 g/ha, evaluated three weeks after application
How it was run: as §4

blackgrass [18] = assay: Test Example 5: herbicidal effect by foliage application, plastic box (Table 20, symbol J); assay type: in vivo, blackgrass (Alopecurus myosuroides); conditions: foliage application, 320 g/ha, evaluated three weeks after application
How it was run: as §4

Italian ryegrass [19] = assay: Test Example 5: herbicidal effect by foliage application, plastic box (Table 20, symbol K); assay type: in vivo, Italian ryegrass (Lolium multiflorum); conditions: foliage application, 320 g/ha, evaluated three weeks after application
How it was run: as §4

windgrass [20] = assay: Test Example 5: herbicidal effect by foliage application, plastic box (Table 20, symbol L); assay type: in vivo, windgrass (Apera spica-venti); conditions: foliage application, 320 g/ha, evaluated three weeks after application
How it was run: as §4

velvetleaf [21] = assay: Test Example 5: herbicidal effect by foliage application, plastic box (Table 20, symbol M); assay type: in vivo, velvetleaf (Abutilon theophrasti); conditions: foliage application, 320 g/ha, evaluated three weeks after application
How it was run: as §4

redroot pigweed [22] = assay: Test Example 5: herbicidal effect by foliage application, plastic box (Table 20, symbol N); assay type: in vivo, redroot pigweed (Amaranthus retroflexus); conditions: foliage application, 320 g/ha, evaluated three weeks after application
How it was run: as §4

lambsquarters [23] = assay: Test Example 5: herbicidal effect by foliage application, plastic box (Table 20, symbol O); assay type: in vivo, lambsquarters (Chenopodium album); conditions: foliage application, 320 g/ha, evaluated three weeks after application
How it was run: as §4

chickweed [24] = assay: Test Example 5: herbicidal effect by foliage application, plastic box (Table 20, symbol P); assay type: in vivo, common chickweed (Stellaria media); conditions: foliage application, 320 g/ha, evaluated three weeks after application
How it was run: as §4

persian speedwell [25] = assay: Test Example 5: herbicidal effect by foliage application, plastic box (Table 20, symbol R); assay type: in vivo, Persian speedwell (Veronica persica); conditions: foliage application, 320 g/ha, evaluated three weeks after application
How it was run: as §4

Which results are given for `COc1cc(F)ccc1-c1sc2ccc(NC(C)=O)cc2c1-c1c(O)c(C)nn(C)c1=O` [2-175]?
Herbicidal effect on A: late watergrass (grade 0-5) (late watergrass): 3 (Herbicidal rate of 40% or more and less than 70%); Herbicidal effect on B: Japanese bulrush (grade 0-5) (Japanese bulrush): 0 (Herbicidal rate of 5% or less (almost no effect)); Herbicidal effect on C: oval-leafed pondweed (grade 0-5) (oval-leafed pondweed): 0 (Herbicidal rate of 5% or less (almost no effect)); herbicidal effect on H: barnyard grass (barnyard grass [1]): 4 (Herbicidal rate of 70% or more and less than 90%); herbicidal effect on D: Chinese sprangletop (Chinese sprangletop): 3 (Herbicidal rate of 40% or more and less than 70%); F: southern crabgrass, herbicidal effect rating (southern crabgrass [2]): 0 (Herbicidal rate of 5% or less (almost no effect)); G: green foxtail, herbicidal effect rating (green foxtail [3]): 0 (Herbicidal rate of 5% or less (almost no effect)); H: barnyard grass, herbicidal effect rating (barnyard grass [4]): 0 (Herbicidal rate of 5% or less (almost no effect)); I: wild oat, herbicidal effect rating (wild oat [5]): 0 (Herbicidal rate of 5% or less (almost no effect)); J: blackgrass, herbicidal effect rating (blackgrass [6]): 0 (Herbicidal rate of 5% or less (almost no effect)); K: Italian ryegrass, herbicidal effect rating (Italian ryegrass [7]): 0 (Herbicidal rate of 5% or less (almost no effect)); L: windgrass, herbicidal effect rating (windgrass [8]): 0 (Herbicidal rate of 5% or less (almost no effect)); M: velvetleaf, herbicidal effect rating (velvetleaf [9]): 0 (Herbicidal rate of 5% or less (almost no effect)); N: redroot pigweed, herbicidal effect rating (redroot pigweed [10]): 4 (Herbicidal rate of 70% or more and less than 90%); O: lambsquarters, herbicidal effect rating (lambsquarters [11]): 4 (Herbicidal rate of 70% or more and less than 90%); P: chickweed, herbicidal effect rating (chickweed [12]): 0 (Herbicidal rate of 5% or less (almost no effect)); Q: false cleavers, herbicidal effect rating (false cleavers): 0 (Herbicidal rate of 5% or less (almost no effect)); R: persian speedwell, herbicidal effect rating (persian speedwell [13]): 0 (Herbicidal rate of 5% or less (almost no effect)); herbicidal effect on F: southern crabgrass (criteria 0-5) (southern crabgrass [14]): 3 (Herbicidal rate of 40% or more and less than 70%); herbicidal effect on G: green foxtail (criteria 0-5) (green foxtail [15]): 4 (Herbicidal rate of 70% or more and less than 90%); herbicidal effect on H: barnyard grass (criteria 0-5) (barnyard grass [16]): 1 (Herbicidal rate of 5% or more and less than 20%); herbicidal effect on I: wild oat (criteria 0-5) (wild oat [17]): 3 (Herbicidal rate of 40% or more and less than 70%); herbicidal effect on J: blackgrass (criteria 0-5) (blackgrass [18]): 5 (Herbicidal rate of 90% or more (almost completely withered)); herbicidal effect on K: Italian ryegrass (criteria 0-5) (Italian ryegrass [19]): 0 (Herbicidal rate of 5% or less (almost no effect)); herbicidal effect on L: windgrass (criteria 0-5) (windgrass [20]): 5 (Herbicidal rate of 90% or more (almost completely withered)); herbicidal effect on M: velvetleaf (criteria 0-5) (velvetleaf [21]): 3 (Herbicidal rate of 40% or more and less than 70%); herbicidal effect on N: redroot pigweed (criteria 0-5) (redroot pigweed [22]): 5 (Herbicidal rate of 90% or more (almost completely withered)); herbicidal effect on O: lambsquarters (criteria 0-5) (lambsquarters [23]): 5 (Herbicidal rate of 90% or more (almost completely withered)); herbicidal effect on P: chickweed (criteria 0-5) (chickweed [24]): 5 (Herbicidal rate of 90% or more (almost completely withered)); herbicidal effect on R: persian speedwell (criteria 0-5) (persian speedwell [25]): 1 (Herbicidal rate of 5% or more and less than 20%)
